Data published in patent publication US10405548B2, “Fungicidal compositions” (Syngenta Crop Protection, LLC, priority 2004, dated 2019).
Several values for one entry are separate records, joined by “and”; a condition that tells them apart may be missing. Equal entries are not always repeated. Where two headings read alike, the source gives them in different places.

Tests used:
Assay type in all cases: cell-based
Septoria tritici = test: Fungal growth assay, Control of Septoria tritici (PDB, 96-well, 24° C., photometric, 72 hrs)
Rhizoctonia solani = test: Fungal growth assay, Control of Rhizoctonia solani (PDB, 96-well, 24° C., photometric, 48 hrs)
Microdochium nivale = test: Fungal growth assay, Control of Microdochium nivale (PDB, 96-well, 24° C., photometric, 72 hrs)
Pyrenophora graminea = test: Fungal growth assay, Control of Pyrenophora graminea (PDB, 96-well, 24° C., photometric, 72 hrs)
Fusarium graminearum = tested on: Fusarium graminearum
Gäumannomyces graminis = test: Fungal growth assay, Control of Gaumannomyces graminis (PDB, 96-well, 24° C., photometric, 72 hrs)
Ustilago nuda = test: Fungal growth assay, Control of Ustilago nuda (PDB, 96-well, 24° C., photometric, 48 hrs)

Cn1cc(C(=O)Nc2ccccc2[C@@H]2C[C@H]2C2CC2)c(C(F)F)n1 (racemic) [Racemic cpd Ia]
Observed control in % (% Cobs) (Septoria tritici; 0.0001 ppm): 0%
Observed control in % (% Cobs) (Septoria tritici; 0.0003 ppm): 2% and 1%
Observed control in % (% Cobs) (Septoria tritici; 0.007 ppm): 0%
Observed control in % (% Cobs) (Septoria tritici; 0.0074 ppm): 0%
Observed control in % (% Cobs) (Septoria tritici; 0.022 ppm): 0%
Observed control in % (% Cobs) (Septoria tritici; 0.067 ppm): 4%
Observed control in % (% Cobs) (Rhizoctonia solani; 0.0001 ppm): 3%
Observed control in % (% Cobs) (Rhizoctonia solani; 0.0008 ppm): 8%
Observed control in % (% Cobs) (Rhizoctonia solani; 0.0025 ppm): 4%
Observed control in % (% Cobs) (Rhizoctonia solani; 0.007 ppm): 4%
Observed control in % (% Cobs) (Rhizoctonia solani; 0.0074 ppm): 0%
Observed control in % (% Cobs) (Microdochium nivale; 0.0003 ppm): 0%
Observed control in % (% Cobs) (Microdochium nivale; 0.0008 ppm): 0%
Observed control in % (% Cobs) (Microdochium nivale; 0.002 ppm): 0%
Observed control in % (% Cobs) (Microdochium nivale; 0.0025 ppm): 1% and 0%
Observed control in % (% Cobs) (Microdochium nivale; 0.007 ppm): 2%
Observed control in % (% Cobs) (Microdochium nivale; 0.0074 ppm): 0%
Observed control in % (% Cobs) (Microdochium nivale; 0.067 ppm): 0% and 4% and 2%
Observed control in % (% Cobs) (Pyrenophora graminea; 0.0003 ppm): 1%
Observed control in % (% Cobs) (Pyrenophora graminea; 0.0008 ppm): 6%
Observed control in % (% Cobs) (Pyrenophora graminea; 0.002 ppm): 0%
Observed control in % (% Cobs) (Pyrenophora graminea; 0.0074 ppm): 4%
Observed control in % (% Cobs) (Pyrenophora graminea; 0.022 ppm): 0%
Observed control in % (% Cobs) (Pyrenophora graminea; 0.0667 ppm): 20%
Observed control in % (% Cobs) (Pyrenophora graminea; 0.067 ppm): 1%
Observed control in % (% Cobs) (Pyrenophora graminea; 1.8 ppm): 11% and 1% and 6%
Observed control in % (% Cobs) (Fusarium graminearum; 0.0001 ppm): 0%
Observed control in % (% Cobs) (Fusarium graminearum; 0.0008 ppm): 0%
Observed control in % (% Cobs) (Fusarium graminearum; 0.007 ppm): 0%
Observed control in % (% Cobs) (Fusarium graminearum; 0.0074 ppm): 0%
Observed control in % (% Cobs) (Fusarium graminearum; 0.022 ppm): 0%
Observed control in % (% Cobs) (Fusarium graminearum; 0.0667 ppm): 7%
Observed control in % (% Cobs) (Fusarium graminearum; 0.067 ppm): 4% and 10%
Observed control in % (% Cobs) (Fusarium graminearum; 0.2 ppm): 7%
Observed control in % (% Cobs) (Fusarium graminearum; 0.6 ppm): 12%
Observed control in % (% Cobs) (Fusarium graminearum; 1.8 ppm): 18%
Observed control in % (% Cobs) (Gäumannomyces graminis; 0.0003 ppm): 0%
Observed control in % (% Cobs) (Gäumannomyces graminis; 0.0008 ppm): 0%
Observed control in % (% Cobs) (Gäumannomyces graminis; 0.002 ppm): 2%
Observed control in % (% Cobs) (Gäumannomyces graminis; 0.007 ppm): 0%
Observed control in % (% Cobs) (Gäumannomyces graminis; 0.2 ppm): 0%
Observed control in % (% Cobs) (Ustilago nuda; 0.0001 ppm): 5%
Observed control in % (% Cobs) (Ustilago nuda; 0.0003 ppm): 0%
Observed control in % (% Cobs) (Ustilago nuda; 0.002 ppm): 0%
Observed control in % (% Cobs) (Ustilago nuda; 0.007 ppm): 15%

CO/C=C(/C(=O)OC)c1ccccc1Oc1cc(Oc2ccccc2C#N)ncn1 [Azoxystrobin, reference compound]
Observed control in % (% Cobs) (Gäumannomyces graminis; 0.002 ppm): 11%

CC(C1CC1)C(O)(Cn1cncn1)c1ccc(Cl)cc1 (centres unmarked) [Cyproconazole, reference compound]
Observed control in % (% Cobs) (Microdochium nivale; 0.2 ppm): 0%
Observed control in % (% Cobs) (Microdochium nivale; 0.6 ppm): 0%
Observed control in % (% Cobs) (Microdochium nivale; 1.8 ppm): 9%
Observed control in % (% Cobs) (Pyrenophora graminea; 0.022 ppm): 4%
Observed control in % (% Cobs) (Pyrenophora graminea; 0.2 ppm): 19%
Observed control in % (% Cobs) (Pyrenophora graminea; 0.6 ppm): 28%
Observed control in % (% Cobs) (Fusarium graminearum; 0.002 ppm): 5%
Observed control in % (% Cobs) (Fusarium graminearum; 0.022 ppm): 1%
Observed control in % (% Cobs) (Fusarium graminearum; 0.2 ppm): 0%

CC1COC(Cn2cncn2)(c2ccc(Oc3ccc(Cl)cc3)cc2Cl)O1 (centres unmarked) [Difenoconazole, reference compound]
Observed control in % (% Cobs) (Microdochium nivale; 0.007 ppm): 4%
Observed control in % (% Cobs) (Microdochium nivale; 0.2 ppm): 1%
Observed control in % (% Cobs) (Microdochium nivale; 0.6 ppm): 13%
Observed control in % (% Cobs) (Pyrenophora graminea; 0.007 ppm): 0%
Observed control in % (% Cobs) (Pyrenophora graminea; 0.022 ppm): 15%
Observed control in % (% Cobs) (Pyrenophora graminea; 0.067 ppm): 23%
Observed control in % (% Cobs) (Pyrenophora graminea; 0.2 ppm): 51%
Observed control in % (% Cobs) (Ustilago nuda; 0.002 ppm): 2%

N#Cc1c[nH]cc1-c1cccc2c1OC(F)(F)O2 [Fludioxonil, reference compound]
Observed control in % (% Cobs) (Septoria tritici; 0.002 ppm): 0%
Observed control in % (% Cobs) (Septoria tritici; 0.067 ppm): 9%
Observed control in % (% Cobs) (Rhizoctonia solani; 0.002 ppm): 0%
Observed control in % (% Cobs) (Rhizoctonia solani; 0.007 ppm): 6%
Observed control in % (% Cobs) (Rhizoctonia solani; 0.022 ppm): 0%
Observed control in % (% Cobs) (Rhizoctonia solani; 0.067 ppm): 0%
Observed control in % (% Cobs) (Microdochium nivale; 0.002 ppm): 0%
Observed control in % (% Cobs) (Microdochium nivale; 0.007 ppm): 0%
Observed control in % (% Cobs) (Microdochium nivale; 0.022 ppm): 0%
Observed control in % (% Cobs) (Microdochium nivale; 0.067 ppm): 3%
Observed control in % (% Cobs) (Pyrenophora graminea; 0.002 ppm): 7%
Observed control in % (% Cobs) (Fusarium graminearum; 0.007 ppm): 1%
Observed control in % (% Cobs) (Fusarium graminearum; 0.022 ppm): 6%
Observed control in % (% Cobs) (Fusarium graminearum; 0.067 ppm): 39%
Observed control in % (% Cobs) (Ustilago nuda; 0.002 ppm): 0%
Observed control in % (% Cobs) (Ustilago nuda; 0.007 ppm): 0%
Observed control in % (% Cobs) (Ustilago nuda; 0.022 ppm): 21%

c1ccc2[nH]c(-c3cscn3)nc2c1 [Thiabendazole, reference compound]
Observed control in % (% Cobs) (Septoria tritici; 0.0223 ppm): 0%
Observed control in % (% Cobs) (Septoria tritici; 0.067 ppm): 0%
Observed control in % (% Cobs) (Septoria tritici; 0.6 ppm): 3%
Observed control in % (% Cobs) (Septoria tritici; 1.8 ppm): 1%
Observed control in % (% Cobs) (Rhizoctonia solani; 0.0074 ppm): 0%
Observed control in % (% Cobs) (Rhizoctonia solani; 0.023 ppm): 7%
Observed control in % (% Cobs) (Rhizoctonia solani; 0.2 ppm): 12%
Observed control in % (% Cobs) (Rhizoctonia solani; 0.6 ppm): 13%
Observed control in % (% Cobs) (Pyrenophora graminea; 0.0025 ppm): 0%
Observed control in % (% Cobs) (Pyrenophora graminea; 0.0223 ppm): 0%
Observed control in % (% Cobs) (Fusarium graminearum; 0.0025 ppm): 1%
Observed control in % (% Cobs) (Fusarium graminearum; 0.0223 ppm): 0%
